Experimental data as given in US8420657B2 (Novartis AG, priority 2008, dated 2013).

Molecular target: T1, GST-JAK2(808-1132) (Homo sapiens, UniProt O60674)
T1 construct: GST-JAK2(808-1132); purchased Invitrogen (Carlsbad, USA) #4288
Test: JAK2 kinase assay (Caliper mobility shift, LabChip 3000)
Assay type: biochemical
Text: All four kinases of the JAK/TYK-kinase family were used as purified recombinant GST-fusion proteins, containing the active kinase domains. GST-JAK1 (866-1154), GST-JAK3(811-1124), and GST-TYK2(888-1187) were expressed and purified by affinity chromatography at the EPK biology unit. GST-JAK2(808-1132) was purchased from Invitrogen (Carlsbad, USA, #4288).
The kinase assays were based on the Caliper mobility shift assay using the LabChip 3000 systems. This technology is similar to capillary electrophoresis and uses charge driven separation of substrate and product in a microfluidic chip.
All kinase reactions were performed in 384 well microtiter plates in a total reaction volume of 18 μl. The assay plates were prepared with 0.1 μl per well of test compound in the appropriate test concentration, as described under the section “preparation of compound dilutions”. The reactions were started by combining 9 μl of substrate mix (consisting of peptide and ATP) with 9 μl of kinase dilution. The reactions were incubated for 60 minutes at 30° C. and stopped by adding 70 μl of stop buffer (100 mM Hepes, 5% DMSO, 0.1% Coating reagent, 10 mM EDTA, 0.015% Brij 35).
Fluorescently labeled synthetic peptides were used as substrates in all reactions. A peptide derived from the sequence of IRS-1(IRS-1 peptide, SEQ ID NO: 1 FITC-Ahx-KKSRGDYMTMQIG-NH2) was used for JAK1 and TYK2 and a peptide named JAK3tide SEQ ID NO: 2 (FITC-GGEEEEYFELVKKKK-NH2) for JAK2 and JAK3. Specific assay conditions are described in Table1:
The terminated reactions were transferred to the Caliper LabChip 3000 reader and the turnover of each reaction was measured by determining the substrate/product ratio.
Test compounds were dissolved in DMSO (10 mM) and transferred into 1.4 mL flat bottom or V-shaped Matrix tubes carrying a unique 2D matrix chip by individual compound hubs. The numbers of these chips were distinctively linked to the individual compound identification numbers. The stock solutions were stored at −20° C. if not used immediately. For the test procedure the vials were defrosted and identified by a scanner whereby a working sheet was generated that guided the subsequent working steps. Compound dilutions were made in 96 well plates. This format enabled the assay of maximally 40 individual test compounds at 8 concentrations (single points) including 4 reference compounds. The dilution protocol included the production of pre-dilution plates, master plates and assay plates:
Pre-dilution plates: 96 polypropylene well plates were used as pre-dilution plates. A total of 4 pre-dilution plates were prepared including 10 test compounds each on the plate positions A1-A10, one standard compound at A11 and one DMSO control at A12. All dilution steps were done on a HamiltonSTAR robot.
Master plates: 100 μL of individual compound dilutions including standard compound and controls of the 4 “pre-dilution plates” were transferred into a 384 “master plate” including the following concentrations 1,820, […], 182, 54.6, 18.2, 5.46, 1.82 and 0.546 μM, respectively in 90% of DMSO.
Assay plates: Identical assay plates were then prepared by pipetting 100 nL each of compound dilutions of the master plates into 384-well “assay plates”. In the following the compounds were mixed with 9 μL of assays components plus 9 μL enzyme corresponding to a 1:181 dilution steps enabling the final concentration of 10, 3.0, 1.0, 0.3, 0.1, 0.03, 0.01 and 0.003 μM, respectively. The preparation of the master plates were handled by the Matrix PlateMate Plus robot and replication of assay plates by the HummingBird robot.

T1 sequence (O60674 808-1132): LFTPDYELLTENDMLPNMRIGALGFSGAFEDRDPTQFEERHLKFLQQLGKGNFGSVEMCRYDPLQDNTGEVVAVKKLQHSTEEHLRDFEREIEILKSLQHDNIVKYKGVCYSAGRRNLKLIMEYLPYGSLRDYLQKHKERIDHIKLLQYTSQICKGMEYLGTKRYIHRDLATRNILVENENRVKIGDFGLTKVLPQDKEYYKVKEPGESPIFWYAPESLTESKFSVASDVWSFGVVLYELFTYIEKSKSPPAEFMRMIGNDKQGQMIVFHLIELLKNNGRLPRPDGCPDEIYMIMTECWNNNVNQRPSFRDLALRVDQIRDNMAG

`Fc1cc(-n2ccc3cnc(Nc4cnn(C5CCNCC5)c4)nc32)cc(F)c1CN1CCOCC1` [Example 321, [7-(3,5-Difluoro-4-morpholin-4-ylmethyl-phenyl)-7H-pyrrolo[2,3-d]pyrimidin-2-yl]-(1-piperidin-4-yl-1H-pyrazol-4-yl)-amine] and `Fc1cc(-n2ccc3cnc(Nc4ccc(CN5CCNCC5)cc4)nc32)cc(F)c1CN1CCOCC1` [Example 315, [7-(3,5-Difluoro-4-morpholin-4-ylmethyl-phenyl)-7H-pyrrolo[2,3-d]pyrimidin-2-yl]-(4-piperazin-1-ylmethyl-phenyl)-amine] cannot be ordered by IC50: < 3 nM for the first, < 3 nM for the second.

Compared with `CN1CCN(Cc2ccc(Nc3ncc4ccn(-c5cc(F)c(C(=O)N6CCOCC6)c(F)c5)c4n3)cc2C(F)(F)F)CC1` [Example 204, (2,6-Difluoro-4-{2-[4-(4-methyl-piperazin-1-ylmethyl)-3-trifluoromethyl-phenylamino]-pyrrolo[2,3-d]pyrimidin-7-yl}-phenyl)-morpholin-4-yl-methanone], `CN1CCN(Cc2ccc(Nc3ncc4ccn(-c5cc(F)c(CN6CCOCC6)c(F)c5)c4n3)cc2C(F)(F)F)CC1` [Example 200, [7-(3,5-Difluoro-4-morpholin-4-ylmethyl-phenyl)-7H-pyrrolo[2,3-d]pyrimidin-2-yl]-[4-(4-methyl-piperazin-1-ylmethyl)-3-trifluoromethyl-phenyl]-amine] is higher in IC50: < 3 nM for the first, 3.7 nM for the second.

`O=C(c1ccc(-n2ccc3cnc(Nc4ccc(C(F)(F)F)nc4)nc32)cc1)N1CCOCC1` [Example 236, Morpholin-4-yl-{4-[2-(6-trifluoromethyl-pyridin-3-ylamino)-pyrrolo[2,3-d]pyrimidin-7-yl]-phenyl}-methanone] and `O=C(c1ccc(-n2ccc3cnc(Nc4ccc(C(F)(F)F)nc4)nc32)cc1F)N1CCOCC1` [Example 227, {2-Fluoro-4-[2-(6-trifluoromethyl-pyridin-3-ylamino)-pyrrolo[2,3-d]pyrimidin-7-yl]-phenyl}-morpholin-4-yl-methanone] are within 1.5-fold of each other in IC50: 46 nM for the first, 41.5 nM for the second.

First: Cc1ccc(Nc2ncc3ccn(-c4cc(F)c(CN5CCOCC5)c(F)c4)c3n2)cc1Cn1cc(CCO)cn1 [Example 467, 2-(1-{5-[7-(3,5-Difluoro-4-morpholin-4-ylmethyl-phenyl)-7H-pyrrolo[2,3-d]pyrimidin-2-ylamino]-2-methyl-benzyl}-1H-pyrazol-4-yl)-ethanol]
Second: Cc1ccc(Nc2ncc3ccn(-c4cc(F)c(CN5CCOCC5)c(F)c4)c3n2)cc1COC1CNC1 [Example 420, [3-(Azetidin-3-yloxymethyl)-4-methyl-phenyl]-[7-(3,5-difluoro-4-morpholin-4-ylmethyl-phenyl)-7H-pyrrolo[2,3-d]pyrimidin-2-yl]-amine]
The IC50 of the first is higher: 4.6 nM for the first, ≤ 3 nM for the second.

Compared with `CN1CCN(c2ccc(Nc3ncc4ccn(-c5ccc(C(O)C6CC6)cc5)c4n3)cn2)CC1` (stereo not shown) [Example 277, Cyclopropyl-(4-{2-[6-(4-methyl-piperazin-1-yl)-pyridin-3-ylamino]-pyrrolo[2,3-d]pyrimidin-7-yl}-phenyl)-methanol], `CC(O)c1ccc(-n2ccc3cnc(Nc4ccc(N5CCN(C)CC5)nc4)nc32)cc1` (stereo not shown) [Example 279, 1-(4-{2-[6-(4-Methyl-piperazin-1-yl)-pyridin-3-ylamino]-pyrrolo[2,3-d]pyrimidin-7-yl}-phenyl)-ethanol] is 2.1-fold lower in IC50: 8.3 nM for the first, 4 nM for the second. The second is the more potent here.

Compared with `CCN(CC)CCOc1ccc(Nc2ncc3ccn(-c4ccc(S(C)(=O)=O)cc4)c3n2)cc1` [Example 33, [4-(2-Diethylamino-ethoxy)-phenyl]-[7-(4-methanesulfonyl-phenyl)-7H-pyrrolo[2,3-d]pyrimidin-2-yl]-amine], `CS(=O)(=O)c1ccc(-n2ccc3cnc(Nc4ccc(F)cc4)nc32)cc1` [Example 55, (4-Fluoro-phenyl)-[7-(4-methanesulfonyl-phenyl)-7H-pyrrolo[2,3-d]pyrimidin-2-yl]-amine] is higher in IC50: < 3 nM for the first, 20 nM for the second.

Going from `CCN1CCN(c2ccc(Nc3ncc4ccn(-c5ccc(CC(=O)N6CCN(C)CC6)cc5)c4n3)cc2C)CC1` [Example 284, 2-(4-{2-[4-(4-Ethyl-piperazin-1-yl)-3-methyl-phenylamino]-pyrrolo[2,3-d]pyrimidin-7-yl}-phenyl)-1-(4-methyl-piperazin-1-yl)-ethanone] to `Cc1ccc(Nc2ncc3ccn(-c4ccc(C(=O)N5CCOCC5)c(F)c4)c3n2)cc1CN1CCN(C)CC1` [Example 326, (2-Fluoro-4-{2-[4-methyl-3-(4-methyl-piperazin-1-ylmethyl)-phenylamino]-pyrrolo[2,3-d]pyrimidin-7-yl}-phenyl)-morpholin-4-yl-methanone], the IC50 falls from 3.7 nM to < 3 nM.

Compared with `O=S1(=O)CCN(Cc2c(F)cc(-n3ccc4cnc(Nc5ccnc(N6CCNC7(CC7)C6)c5)nc43)cc2F)CC1` [Example 442], `O=C(c1c(F)cc(-n2ccc3cnc(Nc4ccnc(N5CCNC6(CC6)C5)c4)nc32)cc1F)N1CCOCC1` [Example 281, (4-{2-[2-(4,7-Diaza-spiro[2.5]oct-7-yl)-pyridin-4-ylamino]-pyrrolo[2,3-d]pyrimidin-7-yl}-2,6-difluoro-phenyl)-morpholin-4-yl-methanone] is higher in IC50: ≤ 3 nM for the first, 24 nM for the second.

First: Cc1ccc(Nc2ncc3ccn(-c4cc(F)c(CN5CCOCC5)c(F)c4)c3n2)cc1 [Example 325, [7-(3,5-Difluoro-4-morpholin-4-ylmethyl-phenyl)-7H-pyrrolo[2,3-d]pyrimidin-2-yl]-p-tolyl-amine]
Second: Cc1ccc(Nc2ncc3ccn(-c4ccc(C(=O)N5CCOCC5)c(F)c4)c3n2)nc1C [Example 222, {4-[2-(5,6-Dimethyl-pyridin-2-ylamino)-pyrrolo[2,3-d]pyrimidin-7-yl]-2-fluoro-phenyl}-morpholin-4-yl-methanone]
The IC50 of the first is 12-fold lower: 25 nM for the first, 290 nM for the second.

`COc1cc(Nc2ncc3ccn(-c4ccc(C(=O)NC(C)(C)C)cc4)c3n2)cc(OC)c1OC` [Example 9, N-tert-Butyl-4-[2-(3,4,5-trimethoxy-phenylamino)-pyrrolo[2,3-d]pyrimidin-7-yl]-benzamide] and `COc1ccc(Nc2ncc3ccn(-c4ccc(S(=O)(=O)NC(C)(C)C)cc4)c3n2)cc1OC` [Example 6, N-tert-Butyl-4-[2-(3,4-dimethoxy-phenylamino)-pyrrolo[2,3-d]pyrimidin-7-yl]-benzenesulfonamide] cannot be ordered by IC50: < 3 nM for the first, < 3 nM for the second.

`CN1CCN(Cc2ccc(Nc3ncc4ccn(-c5ccc(S(C)(=O)=O)cc5)c4n3)cc2)CC1` [Example 38, [7-(4-Methanesulfonyl-phenyl)-7H-pyrrolo[2,3-d]pyrimidin-2-yl]-[4-(4-methyl-piperazin-1-ylmethyl)-phenyl]-amine] and `CN1CCN(C(=O)c2ccc(Nc3ncc4ccn(-c5ccc(S(C)(=O)=O)cc5)c4n3)cc2)CC1` [Example 28, {4-[7-(4-Methanesulfonyl-phenyl)-7H-pyrrolo[2,3-d]pyrimidin-2-ylamino]-phenyl}-(4-methyl-piperazin-1-yl)-methanone] are within 1.5-fold of each other in IC50: 4.5 nM for the first, 4 nM for the second.

Going from `CN1CCN(c2ccc(Nc3ncc4ccn(-c5ccc(S(N)(=O)=O)cc5)c4n3)cc2)CC1` [Example 349, 4-{2-[4-(4-Methyl-piperazin-1-yl)-phenylamino]-pyrrolo[2,3-d]pyrimidin-7-yl}-benzenesulfonamide] to `C[C@@H]1CN[C@@H](C)CN1c1ccc(Nc2ncc3ccn(-c4ccc(S(N)(=O)=O)cc4)c3n2)cn1` (racemic) [Example 357, 4-{2-[6-((2R,5S)-2,5-Dimethyl-piperazin-1-yl)-pyridin-3-ylamino]-pyrrolo[2,3-d]pyrimidin-7-yl}-benzenesulfonamide], the IC50 falls from 16 nM to 6.9 nM (2.3-fold). The second is the more potent here.

`CC(C)(C)OC(=O)N1CCN(C(=O)c2ccc(Nc3ncc4ccn(-c5ccc(S(C)(=O)=O)cc5)c4n3)cc2)CC1` [Example 69, 4-{4-[7-(4-Methanesulfonyl-phenyl)-7H-pyrrolo[2,3-d]pyrimidin-2-ylamino]-benzoyl}-piperazine-1-carboxylic acid tert-butyl ester] was tested, and the IC50 was 4.8 nM.
